The values that follow come from patent US20090264433A1, “Compounds, Compositions and Methods Comprising Triazine Derivatives” (Institute for OneWorld Health, priority 2008, published 2009).

The target in the test is T1, CFTR channel in human colonic T84 cells (Homo sapiens, UniProt P13569).
T1 construct: results in the phosphorylation and opening of CFTR anion channels; host or cells: human colonic T84 cells
T1 sequence (P13569 whole entry): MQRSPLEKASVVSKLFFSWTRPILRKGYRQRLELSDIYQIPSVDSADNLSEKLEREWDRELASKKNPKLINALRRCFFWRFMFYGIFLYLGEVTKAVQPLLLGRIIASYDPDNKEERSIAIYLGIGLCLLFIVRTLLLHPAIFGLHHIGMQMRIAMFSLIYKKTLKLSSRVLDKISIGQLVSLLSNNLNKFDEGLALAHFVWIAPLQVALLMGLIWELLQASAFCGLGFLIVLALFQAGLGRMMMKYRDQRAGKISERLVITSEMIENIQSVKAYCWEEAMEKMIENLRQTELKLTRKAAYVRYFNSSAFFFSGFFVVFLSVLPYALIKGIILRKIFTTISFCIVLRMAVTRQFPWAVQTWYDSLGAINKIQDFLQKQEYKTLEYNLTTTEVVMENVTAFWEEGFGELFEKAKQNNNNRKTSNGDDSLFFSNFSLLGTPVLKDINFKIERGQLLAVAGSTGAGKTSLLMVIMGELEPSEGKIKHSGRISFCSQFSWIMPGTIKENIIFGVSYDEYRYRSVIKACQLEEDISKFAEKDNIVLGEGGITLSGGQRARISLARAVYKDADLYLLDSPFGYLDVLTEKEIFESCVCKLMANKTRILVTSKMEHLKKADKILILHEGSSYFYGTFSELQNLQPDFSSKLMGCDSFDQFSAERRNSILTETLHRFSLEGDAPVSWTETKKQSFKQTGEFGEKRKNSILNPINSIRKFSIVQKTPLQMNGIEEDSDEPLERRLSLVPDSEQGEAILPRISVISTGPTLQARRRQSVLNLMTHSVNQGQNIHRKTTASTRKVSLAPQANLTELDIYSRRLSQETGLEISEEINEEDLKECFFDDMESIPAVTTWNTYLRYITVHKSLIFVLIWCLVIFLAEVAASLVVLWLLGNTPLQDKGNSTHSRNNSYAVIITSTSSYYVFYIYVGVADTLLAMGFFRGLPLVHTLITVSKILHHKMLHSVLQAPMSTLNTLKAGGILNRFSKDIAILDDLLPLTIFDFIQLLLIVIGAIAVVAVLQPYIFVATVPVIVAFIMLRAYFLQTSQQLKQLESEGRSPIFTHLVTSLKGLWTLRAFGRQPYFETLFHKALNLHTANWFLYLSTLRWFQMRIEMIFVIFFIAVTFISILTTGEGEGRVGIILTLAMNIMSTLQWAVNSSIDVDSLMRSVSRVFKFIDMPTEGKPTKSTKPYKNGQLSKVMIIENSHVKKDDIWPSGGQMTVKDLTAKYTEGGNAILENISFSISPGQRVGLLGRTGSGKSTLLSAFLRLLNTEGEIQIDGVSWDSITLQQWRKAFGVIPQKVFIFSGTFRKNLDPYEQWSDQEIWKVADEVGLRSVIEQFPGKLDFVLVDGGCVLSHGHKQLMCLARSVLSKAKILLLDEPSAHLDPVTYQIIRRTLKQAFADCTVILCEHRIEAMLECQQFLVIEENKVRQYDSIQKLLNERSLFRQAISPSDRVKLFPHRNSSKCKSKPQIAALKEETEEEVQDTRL
As to the kind of experiment: T84 assay (FLIPR membrane potential dye, forskolin/IBMX-stimulated CFTR). As to conditions: average of at least 2 runs unless annotated n = 1. The format is cell-based. Summed up:
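T84 cells (25,000/well, grown overnight) were washed in HBSS with 10 mM Hepes, then loaded with FLIPR Red membrane potential dye for 45 min with or without compound. CFTR was stimulated with 10 μM forskolin plus 100 μM IBMX after a 10 s baseline. Depolarization was tracked as a fluorescence increase, read every second for 150 s.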
As for `O=C(c1ccco1)N1CCN(Cc2ccc(COc3ncc(-c4cc(Cl)c(O)c(Cl)c4)nn3)cc2)CC1` [Compound 217, (4-(4-((6-(3,5-dichloro-4-hydroxyphenyl)-1,2,4-triazin-3-yloxy)methyl)benzyl)piperazin-1-yl)(furan-2-yl)methanone], it took 4.47 µM to reach half-maximal inhibition (IC50).
In the case of `O=C(c1ccccc1)N1CCN(Cc2ccc(COc3ncc(-c4cc(Cl)c(O)c(Cl)c4)nn3)cc2)CC1` [Compound 218, (4-(4-((6-(3,5-dichloro-4-hydroxyphenyl)-1,2,4-triazin-3-yloxy)methyl)benzyl)piperazin-1-yl)(phenyl)methanone] it was 3.8 µM; in that of `O=C(C1CC1)N1CCN(Cc2ccc(COc3ncc(-c4cc(Cl)c(O)c(Cl)c4)nn3)cc2)CC1` [Compound 219, cyclopropyl(4-(4-((6-(3,5-dichloro-4-hydroxyphenyl)-1,2,4-triazin-3-yloxy)methyl)benzyl)piperazin1-yl)methanone], 12.4 µM.
With `O=C(c1ccccc1Cl)N1CCN(Cc2ccc(COc3ncc(-c4cc(Cl)c(O)c(Cl)c4)nn3)cc2)CC1` [Compound 220, (2-chlorophenyl)(4-(4-((6-(3,5-dichloro-4-hydroxyphenyl)-1,2,4-triazin-3-yloxy)methyl)benzyl)piperazin1-yl)methanone], the IC50 (commonly the concentration needed to halve the response being measured) stood at 1.89 µM.
In the case of `CCC(=O)N1CCN(Cc2ccc(COc3ncc(-c4cc(Cl)c(O)c(Cl)c4)nn3)cc2)CC1` [Compound 221, 1-(4-(4-((6-(3,5-dichloro-4-hydroxyphenyl)-1,2,4-triazin-3-yloxy)methyl)benzyl)piperazin-1-yl)propan-1-one] it was 17.4 µM; in that of `CN(Cc1ccc(COc2ncc(-c3cc(Cl)c(O)c(Cl)c3)nn2)cc1)Cc1cccnc1` [Compound 222, 2,6-dichloro-4-(3-(4-((methyl(pyridin-3-ylmethyl)amino)methyl)benzyl-oxy)-1,2,4-triazin-6-yl)phenol], 11.2 µM.
The value for `OCCN(Cc1ccc(COc2ncc(-c3cc(Cl)c(O)c(Cl)c3)nn2)cc1)Cc1cccc(OCc2ccccc2Cl)c1` [Compound 223, 2,6-dichloro-4-(3-(4-(((3-(2-chlorobenzyloxy)benzyl)(2-hydroxyethyl)amino)methyl)benzyloxy)-1,2,4-triazin-6-yl)phenol] was 3.55 µM.
`O=C(c1cccnc1)N1CCN(Cc2ccc(COc3ncc(-c4cc(Cl)c(O)c(Cl)c4)nn3)cc2)CC1` [Compound 224, (4-(4-((6-(3,5-dichloro-4-hydroxyphenyl)-1,2,4-triazin-3-yloxy)methyl)benzyl)piperazin-1-yl)(pyridin-3-yl)methanone] yielded a concentration for half-maximal inhibition (IC50) of 11.8 µM.
With `Cc1csc(CC(=O)N2CCN(Cc3ccc(COc4ncc(-c5cc(Cl)c(O)c(Cl)c5)nn4)cc3)CC2)n1` [Compound 225, 1-(4-(4-((6-(3,5-dichloro-4-hydroxyphenyl)-1,2,4-triazin-3-yloxy)methyl)benzyl)piperazin-1-yl)-2-(4-methylthiazol-2-yl)ethanone], the half-inhibitory concentration (IC50) stood at 11.1 µM.
